Data: patent US20210405025A1, “IDENTIFYING COMPOUNDS FOR TREATING CANCER AND USE THEREOF” (THE UAB RESEARCH FOUNDATION, priority 2018, published 2021)
Where a name gives a salt, the structure may show the parent alone. Read-outs that look alike come from different tables or passages of the source.

Assays:
relapsed AML cells = assay: Drug sensitivity assay, 1,536-well, 3-day culture with individual approved drugs at 10 μM, viability by alamarBlue; type: cell-based, human
Method in brief: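 Three-day exposure of primary AML cells to individual drugs in 1,536-well format, viability read as percent live cells. Cells were thawed, cultured overnight, sorted by FACS for viable blasts and plated at 4,000-4,500 cells/5 μL in cytokine-supplemented IMDM/BIT medium.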

AML patient samples = assay: 10-point dose-response drug screen of statins against AML patient samples, 3-day drug sensitivity assay; type: cell-based, human; settings: Homo sapiens, 72 h, 3-day assay
Description: Drug sensitivity assays were performed using a 1,536-well platform where all cells and reagents were deposited in wells using an acoustic liquid handling unit that is highly accurate for dispensing of nanoliter volumes of liquid. […] After dispensing the cells into the wells, an independent drug at a known concentration is added to each well and incubated with the cells. After three days, the percentage of live cells in each well is determined to assess the killing efficiency of each compound. […] Cell viability assays are known to those of skill in the art. See, for example, Pemovska et al., Individualized systems medicine strategy to tailor treatments for patients with chemorefractory acute myeloid leukemia. Cancer Discovery 3:1416-1429, 2013; Pabst et al., Identification of small molecules that support human leukemia stem cell activity ex vivo. Nature Methods 11:436-442, 2014; Baccelli et al., A novel approach for the identification of efficient combination therapies in primary human acute myeloid leukemia specimens. Blood Cancer Journal 7:e529, 2017. In studies described herein, the 1,536-well format was utilized, which allowed for use of four times fewer cells as well as less drug and media components due to the small assay volume of 5 microliters. […] Other compounds like CellTiter-Glo (Promega, Madison, Wis.) are equally appropriate reagents for determining cell viability.
Conditions for the drug screening assays were as described in Pabst et al., Identification of small molecules that support human leukemia stem cell activity ex vivo, Nature Methods 11:436-442, 2014). Using this protocol, cells were cultured in Iscove's Modified Dulbecco's Medium (IMDM), 15% BIT (bovine serum albumin, insulin, transferrin; Stem Cell Technologies 09500 (Vancouver, Calif.)), 100 ng/ml SCF (Shenandoah 100-04 (Warwick, Pa.)), 50 ng/ml FLT3L (Shenandoah 100-21), 20 ng/ml IL-3 (Shenandoah 100-80), 20 ng/ml G-CSF (Shenandoah 100-72), 10^-4 M β-mercaptoethanol, gentamicin (50 μg/ml) and ciprofloxacin (10 μg/ml).
Cells were removed from liquid nitrogen and placed in a 37° C. bath, just until thawed. For 1,536-well screens utilizing 6,000 wells about 100 million cells were thawed. The volume was doubled with pre-warmed culture media and placed on ice for about one to two minutes. The cells were brought to a final volume of about 8 to 10 mL before spinning down at 1,100 rpm for 5 min at 10° C. The pelleted cells were resuspended in 10 mL of culture media and plated in a tissue-culture treated T75 flask at a density of 1 to 2 million cells/ml. The cells were cultured overnight prior to fluorescence-activated cell sorting of viable cells on the following day.
After cells were cultured overnight, a cell scraper was used to remove any cells that adhered to the plastic. The cells were gently pipetted up and down to break up aggregates. Then, the entire volume was transferred to a 50 mL conical tube through a 70 micron cell strainer to remove cell clumps. The T75 flask was rinsed and scraped with about 10 mL HBSS and transferred to the same 50 mL conical tube through the strainer. The harvested cells were spun down at 1,100 rpm for 5 min at 10° C. The cells were then resuspendd in about 300-500 microliters FACS buffer (HBSS+2% FBS+1× propidium iodide) and transferred to a FACS tube. The tube was placed on ice and viable cells that are forward- and side-scatter gated on viable myeloid blasts were sorted by FACS (the scatter gate should exclude small lymphocytes, large myeloid cells, and debris). After sorting the required number of viable cells, the cells were spun down at 1,100 rpm for 5 min at 10° C. and subsequently resuspended at 4,000-4,500 cells per 5 microliter volume of complete culture media with growth factors and penicillin/streptomycin.

[1] = number of relapsed AML cases out of 18 tested with >70% cell death, 10 μM, 3-day culture

Molecule	#Cases >70% cell death (relapsed AML cells; [1])	also measured
CN(C)/N=N/c1[nH]cnc1C(N)=O [DACARBAZINE]	14	–
CCCCCCCCCCCCCCCC[n+]1ccccc1	–	#Cases >70% cell death (relapsed AML cells): 18
CN(Cc1cc(Br)cc(Br)c1N)C1CCCCC1 [BROMHEXINE]	1	–
CN1CCC(CNc2ccc3ncc(-c4cccc(OC(F)(F)F)c4)n3n2)CC1 [SGI-1776]	14	–
CC(=O)O[C@H]1C[C@H](O[C@H]2[C@@H](O)C[C@H](O[C@H]3[C@@H](O)C[C@H](O[C@H]4CC[C@@]5(C)[C@H](CC[C@@H]6[C@@H]5C[C@@H](O)[C@]5(C)[C@@H](C7=CC(=O)OC7)CC[C@]65O)C4)O[C@@H]3C)O[C@@H]2C)O[C@H](C)[C@H]1O[C@@H]1O[C@H](CO)[C@@H](O)[C@H](O)[C@H]1O [LANATOSIDE C]	18	–
MONENSIN SODIUM [MONENSIN SODIUM (MONENSIN A IS SHOWN)]	7	–
Oc1c(Cl)cc(Cl)c2cccnc12 [CHLOROXINE]	1	–
O=c1[nH]c(=O)n([C@H]2C[C@H](O)[C@@H](CO)O2)cc1C(F)(F)F [TRIFLURIDINE]	6	–
CC[C@H](C)C(=O)O[C@H]1C[C@H](O)C=C2C=C[C@H](C)[C@H](CC[C@@H](O)C[C@@H](O)CC(=O)O)[C@H]21 [PRAVASTATIN]	1	IC50 (AML patient samples; patient sample AML 280, read-out: IC50 AML 280): > 10 µM; IC50 (AML patient samples; patient sample AML 285, read-out: IC50 AML 285): > 10 µM; IC50 (AML patient samples; patient sample AML 290, read-out: IC50 AML 290): > 10 µM; IC50 (AML patient samples; patient sample AML 297, read-out: IC50 AML 297): > 10 µM; IC50 (AML patient samples; patient sample AML 299, read-out: IC50 AML 299): > 10 µM; IC50 (AML patient samples; patient sample AML 307, read-out: IC50 AML 307): > 10 µM; IC50 (AML patient samples; patient sample AML 330, read-out: IC50 AML 330): > 10 µM; IC50 (AML patient samples; patient sample AML 339, read-out: IC50 AML 339): > 10 µM; IC50 (AML patient samples; patient sample AML 340, read-out: IC50 AML 340): > 10 µM; IC50 (AML patient samples; patient sample AML 343, read-out: IC50 AML 343): > 10 µM
C[C@]12CC[C@@H]3c4ccc(OS(=O)(=O)O)cc4CC[C@H]3[C@@H]1CCC2=O [ESTROPIPATE]	1	–
C[C@@H](NCCCc1cccc(C(F)(F)F)c1)c1cccc2ccccc12 [AMG-073 HCL]	1	–
COc1c(C)cnc(Cn2cnc3c(Cl)nc(N)nc32)c1C [CNF-2024]	18	–
